Data reported in patent publication US10711247B2, “Method for reducing pluripotent stem cells, method for producing cell population having reduced pluripotent stem cells” (TOKYO WOMEN'S MEDICAL UNIVERSITY, priority 2015, dated 2020).
Like-named read-outs stand apart in the source and are kept apart here.

Assays:
feeder-less iPS cells [1] = test system: feeder-less iPS cells
Procedure: (§1) FIGS. 8A and 8B indicate the results of culturing iPS cells cultured on laminin E8 fragments following the addition of capsaicin. Vehicle-1 represents the control used in the experiment in which capsaicin was added at 2×10^−4 M, Vehicle-2 represents the control used in the experiment in which capsaicin was added at 1×10^−4 M, and Vehicle-3 represents the control used in the experiment in which capsaicin was added at 1×10^−5 M. The upper panels in FIG. 8A indicates phase-contrast images and the bars represent 100 μm. The middle panels indicate Hoechst staining images and the bars represent 200 μm. The lower panels indicate montage images of 36 fields (6×6) of the Hoechst staining images. FIG. 8B is a graph indicating the numbers of cells in 36 fields under each condition.
(§2) Human iPS cell lines 253G1 and 2017 were purchased from RIKEN (Ibaraki, Japan). Transfer of human iPS cell line 1231A3 was received from Kyoto University.

feeder-less iPS cells [2] = test: feeder-less iPS cells cultured with TRPV-1 agonists, number of cells in 36 fields (Hoechst staining); details: feeder-less iPS cells on laminin E8 fragments
Procedure: as §1, §2

[3] = test system: iPS cell-derived cardiomyocytes; test: iPS cell-derived cardiomyocytes cultured in medium containing capsaicin; format: cell-based, human
Procedure: Prior to seeding the cells, the surface of a temperature-responsive culture dish (Upcell®, CellSeed Inc., Tokyo, Japan) or cell culture dish (Corning, Inc., Corning, N.Y., USA) was coated with fetal bovine serum (FBS) for 2 hours. After the iPS cells were induced to differentiate into cardiomyocytes, the cells were detached using 0.05% trypsin/EDTA and the cell aggregates were broken up into single cells using a strainer (BD Biosciences, Inc., San Jose, Calif., USA), followed by seeding in a culture dish at 2.1×10^5 cells/cm^2 using DMEM medium (Sigma-Aldrich Corp., St. Louis, Mo., USA) containing 10% FBS and culturing in a humidified atmosphere at 37° C. and 5% CO2. In several of the experiments, the cells were treated with puromycin (Sigma-Aldrich Corp., 1.5 μg/mL) for 1 day to purify the iPS cell-derived cardiomyocytes (strain 201B7, αMHC-puro/Rex1-neo).

SMILES: CCCCCCCC/C=C\CCCCCCCC(=O)NCCc1ccc(O)c(O)c1 [OLDA, N-oleoyldopamine]
- cytotoxic activity against iPS cells (feeder-less iPS cells [1]): demonstrated cytotoxic activity against iPS cells

SMILES: CCCCC/C=C\C/C=C\C/C=C\C/C=C\CCCC(=O)NCc1ccc(O)c(OC)c1 [arvanil]
- cytotoxic activity against iPS cells (feeder-less iPS cells [2]; FIGS. 9 and 10): demonstrated cytotoxic activity against iPS cells

SMILES: COc1cc(CNC(=O)CCCC/C=C/C(C)C)ccc1O [capsaicin]
- number of cells (feeder-less iPS cells [2]; capsaicin 2×10^−4 M, 1×10^−4 M, 1×10^−5 M vs vehicle (FIGS. 8A and 8B)): significantly decreased concentration-dependently
- independent pulsation of the cardiomyocytes ([3]; capsaicin 200 μM and 100 μM (concentrations toxic to iPS cells)): maintained
- numbers of Nkx2.5-positive cells ([3]; capsaicin 200 μM and 100 μM, compared with vehicle (FIGS. 8C and 8D)): no changes
